In experiment [1] the target is T1, Human immunodeficiency virus type 1 integrase (Human immunodeficiency virus 1, UniProt Q7ZJM1). Description: Inhibitory concentration against HIV-1 integrase by strand transfer method.
In experiment [2] the target is T1, Human immunodeficiency virus type 1 integrase. Nature of the experiment: Inhibitory concentration to inhibit HIV-1 integrase by 3' -processing method.
The target is the same in experiment [3]. Nature of the experiment: Inhibitory concentration required to inhibit HIV-1 integrase by strand transfer method.
For experiment [4] the target is unchanged. Nature of the experiment: Inhibitory concentration to inhibit HIV-1 integrase by 3' -processing.

SMILES strings stand for the structures. pIC50: −log10 of the molar value. Bounds are passed on as bounds.

T1 sequence (Q7ZJM1 whole entry): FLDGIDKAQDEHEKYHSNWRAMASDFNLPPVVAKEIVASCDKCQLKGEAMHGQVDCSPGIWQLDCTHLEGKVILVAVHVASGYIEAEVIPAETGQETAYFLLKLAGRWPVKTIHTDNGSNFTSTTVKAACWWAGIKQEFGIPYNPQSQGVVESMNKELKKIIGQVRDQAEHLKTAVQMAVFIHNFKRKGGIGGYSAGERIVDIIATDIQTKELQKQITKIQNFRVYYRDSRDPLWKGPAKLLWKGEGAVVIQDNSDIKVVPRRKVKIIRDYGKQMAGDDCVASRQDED

As for `CC1=NN(c2ccccc2)C(=O)C1/N=N/c1ccc(S(=O)(=O)Nc2nnc(C)s2)cc1` (stereo not given), the figures for the negative-log IC50 (pIC50) in experiment [1] and in experiment [2] were 4.11 and 3.87, respectively.
As for `NNS(=O)(=O)c1ccc(OCC(=O)O)cc1`, the pIC50 (commonly the IC50 on a negative log10 scale, so that one unit is a factor of ten) in experiment [1] was 5.06; in experiment [2], 5.09.
With `CC(=O)C1(/N=N/c2ccc(S(=O)(=O)Nc3onc(C)c3C)cc2)CCOC1=O` (stereo not given), the results for the pIC50 in experiment [1] and in experiment [2] were 3.84 and 3.71, respectively.
`CC(=O)Nc1cc(S(=O)(=O)O)cc2cc(S(=O)(=O)O)cc(O)c12`: the results for the pIC50 in experiment [1] and in experiment [2] were 6.54 and 6.33, respectively.
For the molecule `Cc1cc(NS(=O)(=O)c2ccc(N/N=C3/C(=N)C(C)C(=O)C(C)C3=O)cc2)nc(C)n1` (stereo not given), the pIC50 in experiment [1] and in experiment [2] was less than 3.70 each time.
Turning to `Cc1nnc(NS(=O)(=O)c2ccc(N/N=C3/C(=N)C(C)C(=O)C(C)C3=O)cc2)s1` (stereo not given), the pIC50 in experiment [1] and in experiment [2] was less than 3.70 throughout.
As to `Cc1nnc(NS(=O)(=O)c2ccc(C3SC(=S)NC3=O)cc2)s1` (stereo not given), the results for the pIC50 in experiment [1] and in experiment [2] were 4.72 and 4.62, respectively.
In the case of `O=C(Nc1ccc(S(=O)(=O)Nc2ccc(/N=N/c3ccccc3)cc2)cc1)C(Sc1[nH]cnc2ncnc1-2)Sc1[nH]cnc2ncnc1-2`, the pIC50 in experiment [1] is 3.95; in experiment [2], 3.85.
With `CC(=O)C1(/N=N/c2ccc(S(=O)(=O)Nc3ccccn3)cc2)CCOC1=O` (stereo not given), the pIC50 in experiment [1] and in experiment [2] was less than 3.70 each time.
As for `CC(=O)N(C(C)=O)c1nc2c(c(=O)n(C)c(=O)n2C)n1C`, the pIC50 in experiment [1] and in experiment [2] was less than 3.70 in each case.
Regarding `Cc1cc(C)nc(NS(=O)(=O)c2ccc(NC(=O)c3cccn4c(=O)c5ccccc5nc34)cc2)n1`, the pIC50 in experiment [1] is 4.35; in experiment [2], 4.12.
`Cc1ccnc(NS(=O)(=O)c2ccc(N/N=C3/C(=N)C(C)C(=O)C(C)C3=O)cc2)n1` (stereo not given): the negative-log IC50 (pIC50) in experiment [1] and in experiment [2] was less than 3.70 in each case.
Take `CCOC(=O)C(CCCCn1cnc2ncnc(Cl)c21)(NC(C)=O)C(=O)OCC`: the negative-log IC50 (pIC50) in experiment [1] and in experiment [2] was less than 3.70 in each case.
On to `CC(=O)Nc1ccc(S(=O)(=O)/N=N/NCC(=O)O)cc1`, for which the pIC50 in experiment [1] and in experiment [2] was less than 3.70 throughout.
Regarding `CCOC(=O)C(/C=N/c1ccc(S(N)(=O)=O)cc1)C(=O)OCC`, the pIC50 in experiment [1] and in experiment [2] was less than 3.70 in each case.
Take `CC1=NN(c2ccccc2)C(=O)C1/N=N/c1ccc(S(=O)(=O)Nc2ccccn2)cc1` (stereo not given): the pIC50 in experiment [1] and in experiment [2] was less than 3.70 throughout.
As to `COc1cc(NS(=O)(=O)c2ccc(C(C)=O)cc2)nc(OC)n1`, the negative logarithm of the IC50 (pIC50) in experiment [1] and in experiment [2] was less than 3.70 throughout.
On to `CC1=NN(c2ccccc2)C(=O)C1/N=N/c1ccc(S(N)(=O)=O)cc1` (stereo not given), for which the pIC50 in experiment [1] and in experiment [2] was less than 3.70 throughout.
On to `Cc1ccnc(NS(=O)(=O)c2ccc(NC(=O)Nc3ccc(Cl)c(C(F)(F)F)c3)cc2)n1`, for which the results for the pIC50 in experiment [1] and in experiment [2] were 4.10 and 3.91, respectively.
With `CCOC(=O)COc1ccc(S(=O)(=O)c2ccc(OCC(=O)OCC)cc2)cc1`, the pIC50 in experiment [1] and in experiment [2] was less than 3.70 in each case.
In the case of `CS(=O)(=O)c1nc2ccc(N3C(=O)c4ccccc4C3=O)cc2s1`, the pIC50 in experiment [1] and in experiment [2] was less than 3.70 in each case.
As to `Cc1cc(C)nc(NS(=O)(=O)c2ccc(CN3C(=O)c4ccccc4C3=O)cc2)n1`, the pIC50 in experiment [1] and in experiment [2] was less than 3.70 each time.
Consider `CCOC(=O)N(CCCCCCNC(c1ccccc1)S(=O)(=O)O)c1ccccc1` (stereo not given), for which the pIC50 in experiment [1] and in experiment [2] was less than 3.70 in each case.
Consider `Cc1cc(C)nc(NS(=O)(=O)c2ccc(NC(=O)c3cccc4c(N)c5ccccc5nc34)cc2)n1`, for which the pIC50 in experiment [1] is 4.86; in experiment [2], 4.32.
Regarding `CCC(=O)CCC1=Nc2nnc(CCCCc3nnc4n3C(=O)C(CCC(=O)CC)=N4)n2C1=O`, the pIC50 in experiment [1] and in experiment [2] was less than 3.70 each time.
On to `Cc1csc(NS(=O)(=O)c2ccc(N/N=C3/C(=N)C(C)C(=O)C(C)C3=O)cc2)c1C` (stereo not given), for which the negative logarithm of the IC50 (pIC50) in experiment [1] and in experiment [2] was less than 3.70 throughout.
On to `NS(=O)(=O)c1ccc(NC(=O)/C=C\C(=O)O)cc1`, for which the negative-log IC50 (pIC50) in experiment [1] and in experiment [2] was less than 3.70 throughout.
`O=C(O)c1ccccc1/C=N/NC1=CS(=O)(=O)C=C1`: the pIC50 in experiment [1] and in experiment [2] was less than 3.70 in each case.
With `CC1=NN(c2ccccc2)C(=O)C1/N=N/c1ccc(S(=O)(=O)Nc2cc(C)nc(C)n2)cc1` (stereo not given), the pIC50 in experiment [1] and in experiment [2] was less than 3.70 each time.
Turning to `CC1=NN(c2ccccc2)C(=O)C1/N=N/c1ccc(S(=O)(=O)Nc2ncccn2)cc1` (stereo not given), the pIC50 in experiment [1] and in experiment [2] was less than 3.70 in each case.
In the case of `CC1=NN(c2ccccc2)C(=O)C1/N=N/c1ccc(S(=O)(=O)Nc2nccc(C)n2)cc1` (stereo not given), the figures for the negative logarithm of the IC50 (pIC50) in experiment [1] and in experiment [2] were 4.63 and 4.31, respectively.
Regarding `Nc1nc(N)c(/N=N/c2ccc(S(=O)(=O)NC(=O)c3ccccc3)cc2)c(O)n1`, the pIC50 in experiment [1] is 4.02; in experiment [2], 3.92.
As to `CC(=O)C1(/N=N/c2ccc(S(=O)(=O)Nc3nnc(C)s3)cc2)CCOC1=O` (stereo not given), the values for the negative logarithm of the IC50 (pIC50) in experiment [1] and in experiment [2] were 3.75 and 3.61, respectively.
As for `CC(=O)Nc1cccc2cc(S(=O)(=O)O)ccc12`, the results for the negative logarithm of the IC50 (pIC50) in experiment [1] and in experiment [2] were 4.84 and 4.55, respectively.
Turning to `CC(=O)Nc1cc2cc(NS(=O)(=O)c3cc(C(F)(F)F)cc(C(F)(F)F)c3)ccc2oc1=O`, the pIC50 in experiment [1] and in experiment [2] was less than 3.70 throughout.
For the molecule `CC1C(=N)/C(=N/Nc2ccc(S(=O)(=O)Nc3ccccn3)cc2)C(=O)C(C)C1=O` (stereo not given), the negative-log IC50 (pIC50) in experiment [1] and in experiment [2] was less than 3.70 throughout.
Take `CC1C(=N)/C(=N/Nc2ccc(S(=O)(=O)Nc3nccs3)cc2)C(=O)C(C)C1=O` (stereo not given): the pIC50 in experiment [1] and in experiment [2] was less than 3.70 in each case.
Consider `NS(=O)(=O)c1ccc(NC=C2C(=O)N(c3ccccc3)N(c3ccccc3)C2=O)cc1`, for which the pIC50 in experiment [1] and in experiment [2] was less than 3.70 each time.
As for `NS(=O)(=O)c1ccc(NC(=O)/C=C/C(=O)O)cc1`, the negative logarithm of the IC50 (pIC50) in experiment [1] and in experiment [2] was less than 3.70 in each case.
With `CC1C(=N)/C(=N/Nc2ccc(S(=O)(=O)Nc3ncccn3)cc2)C(=O)C(C)C1=O` (stereo not given), the pIC50 in experiment [1] and in experiment [2] was less than 3.70 in each case.
In the case of `O=C(Nc1ccc(S(=O)(=O)Nc2ccc(/N=N/c3ccc(S(=O)(=O)Nc4nccs4)cc3)cc2)cc1)C(N1CC1)(N1CC1)N1CC1`, the pIC50 in experiment [1] and in experiment [2] was less than 3.70 in each case.
For the molecule `O=C(CNC(=O)c1cnc2ccccc2n1)NCCCNC(=O)CNC(=O)c1cnc2ccccc2n1`, the pIC50 in experiment [1] and in experiment [2] was less than 3.70 in each case.
`Cc1ccccc1CN1C2=NCCN2C(=O)C2=C1CCN(S(=O)(=O)c1ccc(Cl)c(S(N)(=O)=O)c1)C2`: the pIC50 in experiment [1] and in experiment [2] was less than 3.70 each time.
As to `CC(=O)Nc1ccc(N)c2cc(S(=O)(=O)O)ccc12`, the negative-log IC50 (pIC50) is 5.57 in experiment [1] and 5.47 in experiment [2].
On to `C=C1CC(c2ccc(S(=O)(=O)N3CCOCC3)cc2)OC1=O` (stereo not given), for which the pIC50 in experiment [1] and in experiment [2] was less than 3.70 each time.
On to `COC(=O)c1noc2c1CSC1=C2CS(=O)(=O)c2ccccc21`, for which the pIC50 in experiment [1] and in experiment [2] was less than 3.70 in each case.
Turning to `CC(=O)NCCSS(=O)(=O)CCCCCS(=O)(=O)SCCNC(C)=O`, the pIC50 in experiment [1] and in experiment [2] was less than 3.70 in each case.
As to `CC(=O)OCC1OC(n2ccc(-n3cncn3)nc2=O)CC1N=[N+]=[N-]` (stereo not given), the pIC50 in experiment [1] and in experiment [2] was less than 3.70 throughout.
Take `NC1=NNC(=O)C1/N=N/c1ccc(S(=O)(=O)Nc2nccs2)cc1` (stereo not given): the results for the pIC50 in experiment [1] and in experiment [2] were 4.21 and 4.15, respectively.
As to `CCOC(=S)SC1OC(COC(C)=O)C(OC(C)=O)C(OC(C)=O)C1OC(C)=O` (stereo not given), the pIC50 in experiment [1] and in experiment [2] was less than 3.70 in each case.
As to `CCOC(=O)C(Cc1cn(S(=O)(=O)c2ccccc2)c2ccccc12)(NC(C)=O)C(=O)OCC`, the pIC50 in experiment [1] and in experiment [2] was less than 3.70 throughout.
With `CCC(=O)C(C)C(=O)C(=O)NCCNC(=O)C(=O)C(C)C(=O)CC` (stereo not given), the pIC50 in experiment [1] and in experiment [2] was less than 3.70 in each case.
`CC1=NN(c2ccccc2)C(=O)C1/N=N/c1ccc(S(=O)(=O)Nc2scc(C)c2C)cc1` (stereo not given): the figures for the pIC50 in experiment [3] and in experiment [4] were 4.01 and 3.91, respectively.
With `CC(=O)C1(/N=N/c2ccc(S(=O)(=O)Nc3nccc(C)n3)cc2)CCOC1=O` (stereo not given), the figures for the pIC50 in experiment [1] and in experiment [2] were 4.19 and 4.15, respectively.
In the case of `CS(=O)(=O)Nc1ccc2oc(=O)c3ccccc3c2c1`, the negative logarithm of the IC50 (pIC50) in experiment [1] and in experiment [2] was less than 3.70 in each case.
For `NS(=O)(=O)c1ccc(NN=C2C(=O)N(c3ccccc3)N(c3ccccc3)C2=O)cc1`, the pIC50 in experiment [1] and in experiment [2] was less than 3.70 in each case.
As to `O=C1NC(=S)SC1c1ccc(S(=O)(=O)Nc2ncccn2)cc1` (stereo not given), the pIC50 is 4.85 in experiment [1] and 4.54 in experiment [2].
`NS(=O)(=O)c1ccc(/N=N/C2Sc3nc4ccccc4n3C2=O)cc1` (stereo not given): the figures for the pIC50 in experiment [1] and in experiment [2] were 3.90 and 3.68, respectively.
Taken in the same sequence, the figures for `Nc1ncnc2c1ncn2[C@@H]1O[C@H](CO[C@@H]2[C@@H](O)[C@H](OS(=O)(=O)O)[C@H](O)[C@@H](O[C@H]3O[C@@H](CO)[C@@H](O)[C@H](O)[C@@H]3N)[C@]2(O)C(=O)[C@@H](N)CO)[C@@H](O)[C@H]1O` were less than 3.70 and less than 3.70.
Take `O=C(O)[C@H]1OC(n2cc([N+](=O)[O-])c(=O)[nH]c2=O)[C@H](O)[C@@H]1O` (stereo not given in full): the pIC50 in experiment [1] and in experiment [2] was less than 3.70 throughout.

For the origin of these results see ChEMBL document CHEMBL1129973, “HIV-1 integrase pharmacophore: discovery of inhibitors through three-dimensional database searching” (J Med Chem, 1997).
